Test results from US8455437B2, “Method to predict and prevent oxygen-induced inflammatory tissue injury” (The United States of America, as Represented by the …, priority 2005, dated 2013).

Key:
endotoxin-treated mice = experiment: Lung injury in endotoxin-treated mice; assay type: in vivo
A2AR gene deficient mice = experiment: Selectivity control: lung inflammation in A2AR gene deficient mice; assay type: in vivo; settings: dosing regimen used to treat WT mice (data not shown)
Description: Thus, the exogenously added selective, synthetic A2AR agonist compensated for the loss of endogenously formed adenosine in oxygenated and inflamed lungs thereby decreasing lung injury and rescuing mice from death.

[1] = test system: oxygenated mice with inflammatory lung injury; settings: mouse, in vivo
[2] = test system: mice with acute inflammatory lung injury; settings: mouse, in vivo
[3] = i.t. injections, endotoxin-treated mice (data not shown)

| SMILES | pulmonary PMN sequestration (endotoxin-treated mice; histological examination) | lung tissue damage as assessed by lung injury score (endotoxin-treated mice; histological examination (not shown)) | accumulation of PMN (endotoxin-treated mice; [3]) | lung gas exchange (endotoxin-treated mice; [3]) | lung injury (endotoxin-treated mice; [3]) | lung vascular permeability (endotoxin-treated mice; [3]) | production of reactive oxygen metabolites (endotoxin-treated mice; [3]) | lung inflammation in A2AR gene deficient mice (A2AR gene deficient mice) | number of deaths (oxygenation-induced death) [1] | BAL fluid protein [2] | alveolo-capillary permeability (protein recovered by broncho-alveolar lavage) [2] | arterial pO2 after return to normal atmosphere [2] | death in short-term assays [2] | deaths of mice with inflamed lungs versus 21% ambient oxygen [2] | inflammatory lung injury (exudate protein in alveolar spaces, arterial blood oxygen tension) [2] | mice that died during 15 min equilibration period in normal atmosphere [2] |
| --- | --- | --- | --- | --- | --- | --- | --- | --- | --- | --- | --- | --- | --- | --- | --- | --- |
| CCNC(=O)[C@H]1O[C@@H](n2cnc3c(N)nc(NCCc4ccc(CCC(=O)O)cc4)nc32)[C@H](O)[C@@H]1O [CGS21680] | inhibition | fourfold decrease | significantly decreased | improved | significantly inhibited | less pronounced increases | reduced | did not affect | dramatically reduced |  |  |  |  |  |  |  |
| O=O [oxygen] |  |  |  |  |  |  |  |  |  | small accumulation | much more pronounced increase | decrease | did not result in death | Five times more | exacerbation | three out of seven |
